According to US20240158446A1, “CYCLIC COMPOUND HAVING SELECTIVE INHIBITORY ACTION ON KRAS OVER HRAS AND NRAS” (CHUGAI SEIYAKU KABUSHIKI KAISHA, priority 2021, published 2024):

What was measured:
[1] = molecular target: GDP-bound KRAS wild-type protein (Homo sapiens, UniProt P01116); assay: Binding to KRAS by surface plasmon resonance (SPR), Single Cycle Kinetics; details: SPR Single Cycle Kinetics, GDP-bound KRAS wild-type protein, 1:1 binding model; read-out: KRAS KD
[2] = molecular target: GDP-bound NRAS wild-type protein (Homo sapiens, UniProt P01111); assay: Binding to NRAS by surface plasmon resonance (SPR), Single Cycle Kinetics; details: SPR KD ratio NRAS/KRAS, class symbols
Chain of GDP-bound NRAS wild-type protein (P01111 whole entry): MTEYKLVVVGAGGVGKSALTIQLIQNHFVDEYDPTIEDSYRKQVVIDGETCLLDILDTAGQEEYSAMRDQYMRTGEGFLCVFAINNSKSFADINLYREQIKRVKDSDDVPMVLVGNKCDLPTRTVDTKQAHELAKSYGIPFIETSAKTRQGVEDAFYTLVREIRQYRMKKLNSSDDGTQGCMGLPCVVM

[3] = molecular target: GDP-bound HRAS wild-type protein (Homo sapiens, UniProt P01112); assay: Binding to HRAS by surface plasmon resonance (SPR), Single Cycle Kinetics; details: SPR KD ratio HRAS/KRAS, class symbols
Chain of GDP-bound HRAS wild-type protein (P01112 whole entry): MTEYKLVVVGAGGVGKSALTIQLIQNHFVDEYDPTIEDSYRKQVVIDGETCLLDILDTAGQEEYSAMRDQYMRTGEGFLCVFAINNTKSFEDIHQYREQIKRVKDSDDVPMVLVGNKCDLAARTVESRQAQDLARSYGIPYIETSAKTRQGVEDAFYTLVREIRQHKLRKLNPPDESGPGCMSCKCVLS

[4] = test system: human lung cancer strain NCI-H441;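 further: cell proliferation inhibition after four days measured by CellTiter-Glo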

Chain of GDP-bound KRAS wild-type protein (P01116 whole entry): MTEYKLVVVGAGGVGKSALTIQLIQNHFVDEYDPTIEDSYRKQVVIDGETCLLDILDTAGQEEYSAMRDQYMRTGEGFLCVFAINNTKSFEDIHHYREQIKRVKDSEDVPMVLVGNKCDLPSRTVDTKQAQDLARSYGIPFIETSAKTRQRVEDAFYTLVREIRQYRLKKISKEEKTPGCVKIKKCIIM

Row | Structure (SMILES) | Kd [1] | NRAS/KRAS (ratio of KD value with respect to GDP-bound NRAS wild-type protein to KD value with respect to KRAS) [2] | HRAS/KRAS (ratio of KD value with respect to GDP-bound HRAS wild-type protein to KD value with respect to KRAS) [3] | IC50 [4]
1 | C#CCN1CC(=O)N(C)[C@H]2C/C=C\CCN(C2=O)[C@@H](Cc2ccc(C)cc2)C(=O)N(C)CC(=O)N[C@@H](CCc2ccc(C(F)(F)F)c(Cl)c2)C(=O)N2C[C@H](OCC)C[C@H]2C(=O)NC2(CC(C)(C)C2)C(=O)N(C)[C@@H](C2CCCC2)C(=O)N(C)[C@H](C(=O)N(C)C)CC(=O)N(C)[C@@H](CCC)C(=O)N[C@@H](CC(C)C)C1=O [PP2526] | 0.004 µM | A (a compound having 10 or more and less than 20 is denoted as A) | B (a compound having 3 or more and less than 10 is denoted as B) | 0.0545 µM
2 | CCC[C@H]1C(=O)N[C@@H]([C@@H](C)CC)C(=O)N(C2CC2)CC(=O)N(C)[C@H]2C/C=C\CCN(C2=O)[C@@H](Cc2ccc(C(F)F)cc2)C(=O)N(C)CC(=O)N[C@@H](CCc2cc(F)c(C(F)(F)F)c(F)c2)C(=O)N2C[C@H](OCC)C[C@H]2C(=O)NC2(CC(C)(C)C2)C(=O)N(C)[C@@H](C(CC)CC)C(=O)N(C)[C@H](C(=O)N(C)C)CC(=O)N1C [PP2527] | 0.00065 µM | AA (a compound having 20 or more is denoted as AA) | A (a compound having 10 or more and less than 20 is denoted as A) | 0.031 µM
3 | CCC[C@H]1C(=O)N[C@@H](CC(C)C)C(=O)N(CC)CC(=O)N(C)[C@H]2C/C=C\CCN(C2=O)[C@@H](Cc2ccc(C)cc2)C(=O)N(C)CC(=O)N[C@@H](CCc2ccc(C(F)(F)F)c(Cl)c2)C(=O)N2C[C@H](OCC)C[C@H]2C(=O)NC2(CC(C)(C)C2)C(=O)N(C)[C@@H](C2CCCC2)C(=O)N(C)[C@H](C(=O)N(C)C)CC(=O)N1C [PP2528] | 0.0046 µM | A (a compound having 10 or more and less than 20 is denoted as A) | B (a compound having 3 or more and less than 10 is denoted as B) | 0.207 µM
4 | CCC[C@H]1C(=O)N[C@@H]([C@@H](C)CC)C(=O)N(C2CC2)CC(=O)N(C)[C@H]2C/C=C\CCN(C2=O)[C@@H](Cc2ccc(C(F)F)cc2)C(=O)N(C)CC(=O)N[C@@H](CCc2cc(F)c(C(F)(F)F)c(F)c2)C(=O)N2C[C@H](OC(C)C)C[C@H]2C(=O)NC2(CC(C)(C)C2)C(=O)N(C)[C@@H](C(CC)CC)C(=O)N(C)[C@H](C(=O)N(C)C)CC(=O)N1C [PP2529] | 0.00077 µM | AA (a compound having 20 or more is denoted as AA) | A (a compound having 10 or more and less than 20 is denoted as A) | 0.064 µM
5 | CCC[C@H]1C(=O)N[C@@H]([C@@H](C)CC)C(=O)N(C)CC(=O)N(C)[C@H]2C/C=C\CCN(C2=O)[C@@H](Cc2ccc(C(F)F)cc2)C(=O)N(C)CC(=O)N[C@@H](CCc2ccc(Cl)c(Cl)c2)C(=O)N2C[C@H](OCC)C[C@H]2C(=O)NC2(CC(C)(C)C2)C(=O)N(C)[C@@H](C(CC)CC)C(=O)N(C)[C@H](C(=O)N(C)C)CC(=O)N1C [PP2531] | 0.00051 µM | AA (a compound having 20 or more is denoted as AA) | A (a compound having 10 or more and less than 20 is denoted as A) | 0.0163 µM
6 | CCC[C@H]1C(=O)N[C@@H](CC(C)C)C(=O)N(C2CC2)CC(=O)N(C)[C@H]2C/C=C\CCN(C2=O)[C@@H](Cc2ccc(C)cc2)C(=O)N(C)CC(=O)N[C@@H](CCc2cc(F)c(C(F)(F)F)c(F)c2)C(=O)N2C[C@H](OCC)C[C@H]2C(=O)NC2(CCC2)C(=O)N(C)[C@@H](C2CCCC2)C(=O)N(C)[C@H](C(=O)N(C)C)CC(=O)N1C [PP2532] | 0.0041 µM | A (a compound having 10 or more and less than 20 is denoted as A) | B (a compound having 3 or more and less than 10 is denoted as B) | 0.144 µM
7 | CCC(CC)[C@H]1C(=O)N(C)[C@H](C(=O)N(C)C)CC(=O)N(C)[C@@H](COC)C(=O)N[C@@H]([C@@H](C)CC)C(=O)N(C)CC(=O)N(C)[C@H]2C/C=C\CCN(C2=O)[C@@H](Cc2ccc(C(F)(F)F)cc2)C(=O)N(C)CC(=O)N[C@@H](CCc2ccc(Cl)c(Cl)c2)C(=O)N2C[C@H](OC(C)C)C[C@H]2C(=O)NC2(CC(C)(C)C2)C(=O)N1C [PP2533] | 0.00049 µM | AA (a compound having 20 or more is denoted as AA) | A (a compound having 10 or more and less than 20 is denoted as A) | 0.02 µM
8 | CCC[C@H]1C(=O)N[C@@H](CC(C)C)C(=O)N(C2CC2)CC(=O)N(C)[C@H]2C/C=C\CCN(C2=O)[C@@H](Cc2ccc(C)cc2)C(=O)N(C)CC(=O)N[C@@H](CCc2ccc(C(F)(F)F)c(OC)c2)C(=O)N2C[C@H](OCC)C[C@H]2C(=O)NC2(CCC2)C(=O)N(C)[C@@H](C2CCCC2)C(=O)N(C)[C@H](C(=O)N(C)C)CC(=O)N1C [PP2534] | 0.0041 µM | A (a compound having 10 or more and less than 20 is denoted as A) | B (a compound having 3 or more and less than 10 is denoted as B) | 0.195 µM
9 | CCC[C@H]1C(=O)N[C@@H]([C@@H](C)CC)C(=O)N(C)CC(=O)N(C)[C@H]2C/C=C\CCN(C2=O)[C@@H](Cc2ccc(C(F)F)cc2)C(=O)N(C)CC(=O)N[C@@H](CCc2ccc(Cl)c(Cl)c2)C(=O)N2C[C@H](OC(C)C)C[C@H]2C(=O)NC2(CC(C)(C)C2)C(=O)N(C)[C@@H](C(CC)CC)C(=O)N(C)[C@H](C(=O)N(C)C)CC(=O)N1C [PP2535] | 0.00054 µM | AA (a compound having 20 or more is denoted as AA) | A (a compound having 10 or more and less than 20 is denoted as A) | 0.0268 µM
10 | C#CCN1CC(=O)N(C)[C@H]2C/C=C\CCN(C2=O)[C@@H](Cc2ccc(C)cc2)C(=O)N(C)CC(=O)N[C@@H](CCc2cc(F)c(C(F)(F)F)c(F)c2)C(=O)N2C[C@H](OCC)C[C@H]2C(=O)NC2(CCC2)C(=O)N(C)[C@@H](C2CCCC2)C(=O)N(C)[C@H](C(=O)N(C)C)CC(=O)N(C)[C@@H](CCC)C(=O)N[C@@H](CC(C)C)C1=O [PP2536] | 0.0024 µM | A (a compound having 10 or more and less than 20 is denoted as A) | B (a compound having 3 or more and less than 10 is denoted as B) | 0.152 µM
11 | CCC[C@H]1C(=O)N[C@@H]([C@@H](C)CC)C(=O)N(C)CC(=O)N(C)[C@H]2C/C=C\CCN(C2=O)[C@@H](Cc2ccc(C)cc2)C(=O)N(C)CC(=O)N[C@@H](CCc2ccc(Cl)c(Cl)c2)C(=O)N2C[C@H](OC(C)C)C[C@H]2C(=O)NC2(CC(C)(C)C2)C(=O)N(C)[C@@H](C(CC)CC)C(=O)N(C)[C@H](C(=O)N(C)C)CC(=O)N1C [PP2537] | 0.00074 µM | AA (a compound having 20 or more is denoted as AA) | A (a compound having 10 or more and less than 20 is denoted as A) | 0.0751 µM
